Results reported in ChEMBL document CHEMBL4619764, “Synthesis of the Cyanobacterial Antibiotics Anaephenes A and B” (2020).
Values after ≈ are worked out from the molar mass of the structure shown.

Columns and labels:
Format in all cases: functional
Bacillus cereus = assay: Antibacterial activity against Bacillus cereus ATCC 14579 after 16 hrs by CLSI-based broth microdilution method; conditions: ATCC 14579, 16 h
Staphylococcus aureus [1] = assay: Antibacterial activity against methicillin-resistant Staphylococcus aureus ATCC 33591 after 16 hrs by CLSI-based broth microdilution method; conditions: ATCC 33591, 16 h
Staphylococcus aureus [2] = assay: Antibacterial activity against Staphylococcus aureus ATCC 25923 after 16 hrs by CLSI-based broth microdilution method; conditions: ATCC 25923, 16 h

SMILES | MIC (Bacillus cereus) [µg/mL] | MIC (Staphylococcus aureus [1]) [µg/mL] | MIC (Staphylococcus aureus [2]) [µg/mL]
CCC/C=C/CCCCc1cccc(O)c1 | 16 (≈ 73.3 µM) | 16 (≈ 73.3 µM) | 16 (≈ 73.3 µM)
C#CCCC/C=C/CCCCc1cccc(O)c1 | 8 (≈ 33 µM) | 8 (≈ 33 µM) | 8 (≈ 33 µM)
CC(=O)NC[C@H]1CN(c2ccc(N3CCOCC3)c(F)c2)C(=O)O1 [LINEZOLID] | 1 (≈ 2.96 µM) | 1 (≈ 2.96 µM) | 0.5 (≈ 1.48 µM)
